The results in this text go back to patent publication US20230381142A1, “ANTILEISHMANIAL COMPOUNDS, COMPOSITIONS AND USE THEREOF” (TRUSTEES OF BOSTON UNIVERSITY, priority 2022, published 2023).

Series [1] is described as follows: GSK inMac assay, host cell toxicity readout (LD MAC). It counts as cell-based, human. The following applies: human; footnote c; read-out: THP-1 Host Cell CC50. Put shortly: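 MAC EC50 reflects THP-1 host cell counts, measured within GSK's inMac L. donovani infection assay that also scores intracellular amastigotes and infected-cell percentage.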
The subject of series [2] is L. donovani intracellular amastigotes in B10R cells. In words: UCSD L. donovani infection assay (Assay Conditions D). The conditions noted are these: B10R cells; for L. donovani amastigotes EC75 (B10R cells): footnote d; for pEC50: Leishmania donovani, values marked d, read-out: L. donovani amastigotes EC50 (B10R cells). It counts as cell-based. Put shortly:
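Compounds, either single-point at 10 μM or 10-point 2-fold series (3 technical, 2 biological replicates), were incubated 72 h at 37° C. with B10R host cells co-seeded with day-7 stationary L. donovani promastigotes (20:1). DAPI-stained nuclei imaging yielded intracellular parasite EC50 and host-cell CC50.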

Series [3] in a line: UCSD infection assay, host cell cytotoxicity (CC50). The conditions noted are these: mouse, B10R host cells infected with L. donovani; footnote d. Type of series: cell-based. The method, then: (§1) Assay Conditions D: B10R cells (CVCL_0155) were seeded at 300 cells/well, and L. donovani WT promastigotes in stationary phase (7th day after passage) were added at 6,000 parasites/well (ratio of 20 parasites/cell). Both cells and parasites were seeded in DMEM High-Glucose medium (Gibco, cat. no. 11995065) containing 5% Fetal Bovine Serum (Sigma-Aldrich, cat. no. F2442) and 1% Penicillin-Streptomycin (Gibco, cat. no. 15140122). Cells and parasites were incubated in the presence of the compounds for 72 h at 37° C. and 5% C02. Plates were then fixed with 4% formaldehyde solution for at least 1 h, then washed with 1×PBS and stained with 5 μg/mL DAPI. Plates were read using an ImageXpress microscope (Molecular Devices) and analyzed by MetaXpress software (Molecular Devices) using a custom module optimized for this assay. […] Compounds were tested in a 10-point 2-fold serial dilution in 3 technical replicates, and 2 biological replicates. After 72 h, plates were fixed and stained with DAPI as described above. Images were acquired on an ImageXpress microscope, and analyzed using the MetaXpress custom module.
as §1, with “Compounds were obtained as 0.2 μmoles of dried film for primary single point screening. Each compound was diluted in DMSO to 10 μM final testing concentration. These compounds were tested in 2 biological replicates. The compounds were pre-spotted onto 384-well assay plates in single concentration.” for “Assay Conditions D:”, “CO2.” for “C02.”, “module. The DRCs were plotted, half-effective concentration (EC50) and half-cytotoxic concentration (CC50) were calculated using GraphPad Prism Software, version 6.05 (GraphPad Software, San Diego, CA).” for “module.”

Series [4] deals with L. major (strain Friedlin) in J774 cells. Description: J774 luciferase infection assay (Assay Conditions E). The conditions noted are these: values marked e. It counts as cell-based, Leishmania major. The protocol:
(§2) Assay Conditions E: J774 cells (ATCC J774A.1 were grown in DMEM supplemented with 10% Fetal Bovine Serum (FBS) and 1% Penicillin-Streptomycin at 37° C. in 5% CO2. Leishmania parasites expressing luciferase and GFP were grown as described in Front. Cell. Infect. Microbiol (2019) 9:237. J774 cells were seeded in microwell plates at 3×10^5 cells/mL density. Cells were washed with PBS and incubated with complete DMEM medium containing stationary phase Leishmania promastigotes (L. major: strain Friedlin; L. braziliensis, strain BA788) at a 1:10 parasite-cell ratio for 24 h. Cells were washed with PBS. Cells and compounds were incubated for 48 h at 37° C. and 5% C02. Compounds were tested in 8-point 2-fold serial dilution in 4 technical replicates, and 2 biological replicates. After 48 h, OneTiterGlo (Promega) (100 μl) was added to each well. Plates were incubated for 15 min and bioluminescence was measured using a plate reader (Molecular Devices). Effective concentration inducing 75% activity (EC75) was calculated using GraphPad Prism Software (version 9.0).

Series [5] concerns L. braziliensis (strain BA788) in J774 cells. The series is described as above. It counts as cell-based, Leishmania braziliensis. The following applies: footnote e. The protocol:
as §2

The subject of series [6] is L. donovani intracellular amastigotes infecting THP-1 macrophages. Description: GSK intramacrophage L. donovani assay (LD AMMAC, inMac; Assay Conditions C). It counts as cell-based. The conditions noted are these: Leishmania donovani; THP-1 cells; values marked c; read-out: L. donovani amastigotes EC50 (THP-1 cells). Put shortly:
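EC50 values come from counting amastigotes per infected THP-1 macrophage (AMMAC). Parallel read-outs give percentage of infected cells per well (INFCELL) and a macrophage-number toxicity EC50 (MAC).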

Series [7] concerns L. braziliensis-infected macrophages. In words: Macrophage (BMDM) infection with L. braziliensis and exposure to CMLDs. Type of series: cell-based, Leishmania braziliensis. The method, then:
Leishmania braziliensis (MIHOM/BR/00/BA788) and L. major (Friedlin) promastigotes were maintained in Schneider's medium (SIGMA) supplemented with 10% heat-inactivated FCS, 100 U/ml penicillin, 100 μg/ml streptomycin (all from Invitrogen).
BMDM were obtained as described above. Cells were resuspended in DMEM medium supplemented with 100 U/mL penicillin, […] streptomycin, and 10% heat-inactivated Fetal Bovine Serum (all from Invitrogen) and seeded at a density of 3×10^5 cells per well in 24-well culture plates. Monolayers received 3×10^6 cells L. braziliensis promastigotes and were incubated at 37° C. in supplemented DMEM medium for 24 h. Infected macrophages were then washed to remove non-internalized parasites. Compounds CMLD 011128, CMLD010947, CMLD010498, and CMLD011494 were added at different concentrations. After 24 hours, cells were extensively washed, fixed and stained with hematoxylin and eosin (H&E). The number of infected cells and of intracellular amastigotes were counted by optical microscopy in 200 macrophages. Positive controls consisted of cultures treated with Amphotericin B (0.25 μg/mL, Invitrogen). Cultures were performed in quintuplicate. Alternatively, infected macrophages were treated as described, monolayers were extensively washed and the medium was replaced by 0.5 ml of supplemented Schneider medium. Cells were cultured for seven additional days at 26° C., when number of viable promastigotes was determined using hemocytometer.
Results were expressed as the mean percentage reduction of infected cells compared with untreated control wells. Half-maximal effective concentrations (EC50) were determined by sigmoidal regression curves using Prism 7.0 software (GraphPad Software Inc.)

pEC50: −log10 of the molar value. Marks after values point to notes of the source that are not given here.

The CC50 is the concentration giving 50% cytotoxicity. The term pEC50 denotes the negative decadic logarithm of the EC50, by convention in mol/L. `COc1ccc(N2C(=O)c3[nH]nc(CC(C)C)c3C2c2ccccc2Cl)cn1` (centres unmarked) [BUCMD00686]: the CC50 in series [1] amounted to 9.9 µM. Besides, in series [2], the “L. donovani amastigotes EC75 (B10R cells)” value (shortened to “L. donovani amastigotes EC75”) was 0.5 µM and the pEC50 is 5.96. In series [3], this compound gave a CC50 at 72 h of 10 µM. The “L. major amastigotes EC75 (J774 cells)” value in series [4] was >10^e μM. Further, the “L. braziliensis amastigotes EC75 (J774 cells)” value in series [5] came out at 1.0 µM.
In the case of `COc1ccc(N2C(=O)c3[nH]nc(CC(C)C)c3C2c2ccc(F)cc2)cc1F` (centres unmarked) [CMLD010884], in series [6], the pEC50 was 5.89. In addition, the CC50 in series [1] was found to be 25.1 µM. Moreover, the “L. donovani amastigotes EC75” value in series [2] is 0.8 µM. Further, the CC50 at 72 h in series [3] was 20 µM. In addition, the “L. major amastigotes EC75 (J774 cells)” value in series [4] is 7.2^e μM. Moreover, the “L. braziliensis amastigotes EC75 (J774 cells)” value in series [5] is above 10 µM.
For `COc1ccc(N2C(=O)c3[nH]nc(CC(C)C)c3C2c2ccccc2Cl)cc1` (centres unmarked) [CMLD010893], in series [6], the pEC50 was 5.89. In addition, the CC50 in series [1] was 20 µM. In addition, the “L. donovani amastigotes EC75” value in series [2] worked out at 0.3 µM. In series [3], this compound showed a CC50 at 72 h of 6.31 µM. In addition, the “L. major amastigotes EC75 (J774 cells)” value in series [4] was 8.3^e μM. For the same compound, in series [5], the “L. braziliensis amastigotes EC75 (J774 cells)” value was above 10 µM.
In the case of `CC(C)Cc1n[nH]c2c1C(c1ccc(F)cc1)N(c1ccc3c(c1)OCO3)C2=O` (centres unmarked) [CMLD010901], the pEC50 in series [6] is 6.22. In series [1], the 50% cytotoxic concentration (CC50) was determined as 25.1 µM. Also, the “L. donovani amastigotes EC75” value in series [2] came to 0.4 µM. In addition, the CC50 at 72 h in series [3] was 12.6 µM. For the same compound, in series [4], the “L. major amastigotes EC75 (J774 cells)” value is reported as 6.0^e μM. Moreover, the “L. braziliensis amastigotes EC75 (J774 cells)” value in series [5] amounted to 8.7 µM.
As for `CC(C)Cc1n[nH]c2c1C(c1ccccc1Cl)N(c1ccc3c(c1)OCO3)C2=O` (centres unmarked) [CMLD010902], the CC50 in series [1] turned out to be 12.2 µM. Besides, the pEC50 in series [2] was 6.70. The “L. major amastigotes EC75 (J774 cells)” value in series [4] is 7.3^e μM. In series [5], the “L. braziliensis amastigotes EC75 (J774 cells)” value is above 10 µM.
`COc1ccc(N2C(=O)c3[nH]nc(CC(C)C)c3[C@@H]2c2ccc(F)cc2)cc1` [CMLD011128]: the pEC50 in series [6] is 6.10. The CC50 in series [1] was above 20 µM. The “L. donovani amastigotes EC75” value in series [2] worked out at 0.5 µM. Also, the “L. braziliensis amastigotes EC75 (J774 cells)” value in series [5] was determined as 7.5 µM. The “leishmanicidal effect on L. braziliensis infection in vitro” value in series [7] is “did not show leishmanicidal effects”. Moreover, the “percentage of infected macrophages” value in series [7] (L. braziliensis, 24 h exposure) is listed as “did not decrease”.
Regarding `CC(C)Cc1n[nH]c2c1C(c1ccccc1Br)N(c1ccc3c(c1)OCO3)C2=O` (centres unmarked) [CMLD011548], the CC50 in series [1] is above 20 µM. Moreover, in series [2], the pEC50 is 6.52. Besides, the “L. major amastigotes EC75 (J774 cells)” value in series [4] was 1.8^e μM. Further, the “L. braziliensis amastigotes EC75 (J774 cells)” value in series [5] is 5.2 µM.
Regarding `CC(C)Cc1n[nH]c2c1C(c1ccccc1Br)N(c1ccc(N(C)C)cc1)C2=O` (centres unmarked) [CMLD011554], the CC50 in series [1] was 5.7 µM. Further, in series [2], the “L. donovani amastigotes EC75” value stood at 0.1 µM and the pEC50 is 7.00. This compound had a CC50 at 72 h in series [3] of 6.31 µM. In series [4], the “L. major amastigotes EC75 (J774 cells)” value is on record as 5.2^c μM. Also, in series [5], the “L. braziliensis amastigotes EC75 (J774 cells)” value is 2.9 µM.
With `Cc1cc(F)ccc1C1c2c(CC(C)C)n[nH]c2C(=O)N1c1ccc(N(C)C)cc1` (centres unmarked) [CMLD011561], the CC50 in series [1] turned out to be 7.5 µM. Besides, in series [2], the “L. donovani amastigotes EC75” value was 0.1 µM and the pEC50 was 7.00. This compound also showed a CC50 at 72 h in series [3] of 7.94 µM. The “L. major amastigotes EC75 (J774 cells)” value in series [4] is 1.9^e μM. Also, the “L. braziliensis amastigotes EC75 (J774 cells)” value in series [5] was 2.1 µM.
In the case of `COc1ccc(N2C(=O)c3[nH]nc(CC(C)C)c3C2c2ccc(F)cc2C)cc1F` (centres unmarked) [CMLD011562], in series [1], the CC50 was found to be 10.9 µM. In series [2], the “L. donovani amastigotes EC75” value was determined as 0.2 µM and the pEC50 is 6.70. In series [3], this compound showed a CC50 at 72 h of 10 µM. For the same compound, the “L. major amastigotes EC75 (J774 cells)” value in series [4] was 2.7^e μM. For the same compound, in series [5], the “L. braziliensis amastigotes EC75 (J774 cells)” value came out at 5.2 µM.
For the compound `Cc1cc(F)ccc1C1c2c(CC(C)C)n[nH]c2C(=O)N1c1ccc2c(c1)OCO2` (centres unmarked) [CMLD011564], the CC50 in series [1] was determined as 12.1 µM. Besides, in series [2], the “L. donovani amastigotes EC75” value was 0.1 µM and the pEC50 was 7.00. The midpoint of cytotoxicity in series [3], the CC50 at 72 h, lay at 12.6 µM. Also, the “L. major amastigotes EC75 (J774 cells)” value in series [4] is listed as 1.4^e μM. Besides, the “L. braziliensis amastigotes EC75 (J774 cells)” value in series [5] is 4.9 µM.
`COc1cc(F)ccc1C1c2c(CC(C)C)n[nH]c2C(=O)N1c1ccc(N(C)C)cc1` (centres unmarked) [CMLD011572]: the CC50 in series [1] came out at 8.5 µM. It took 10 µM to reach half-maximal cytotoxicity in series [3] (CC50 at 72 h). Besides, the “L. major amastigotes EC75 (J774 cells)” value in series [4] was 1.3^e μM. For the same compound, the “L. braziliensis amastigotes EC75 (J774 cells)” value in series [5] worked out at 1.9 µM.
Take `COc1ccc(N2C(=O)c3[nH]nc(CC(C)C)c3C2c2ccc(F)cc2OC)cn1` (centres unmarked) [CMLD011574]: the CC50 in series [1] was above 20 µM. For the same compound, in series [2], the “L. donovani amastigotes EC75” value came to 0.3 µM and the pEC50 was 6.52. For the same compound, in series [4], the “L. major amastigotes EC75 (J774 cells)” value is on record as 4.8^e μM. Besides, the “L. braziliensis amastigotes EC75 (J774 cells)” value in series [5] came to 8.2 µM.
